Tests used:
[1] = Ratio of drug level in spleen to plasma in male Beagle dog at 400 mg/kg administered intramuscularly after 3 months; format: ADME, organism-based, Canis lupus familiaris; parameters: dose 400 mg/kg, route intramuscular; conditions: im
[2] = Drug level in Beagle dog lymph node axillar at 5 mg/kg, sc after 3 months; format: ADME, organism-based, Canis lupus familiaris; parameters: dose 5 mg/kg, route subcutaneous; conditions: axillary lymph node, read-out: Drug uptake
[3] = Ratio of drug level in spleen to plasma in female Beagle dog at 200 mg/kg, sc after 1 month; format: ADME, organism-based, Canis lupus familiaris; parameters: dose 200 mg/kg, route subcutaneous
[4] = Ratio of drug level in spleen to plasma in female Beagle dog at 200 mg/kg, sc after 3 months; format: ADME, organism-based, Canis lupus familiaris; parameters: dose 200 mg/kg, route subcutaneous
[5] = Drug level in Beagle dog skin at injected site at 5 mg/kg, sc after 3 months; format: ADME, organism-based, Canis lupus familiaris, Zone of skin; parameters: dose 5 mg/kg, route subcutaneous; conditions: read-out: Drug uptake
[6] = Tmax in female dog at 200 mg administered intramuscularly after 85 days; conditions: in vivo, im
[7] = AUC (0 to last) in Beagle dog at 5 mg/kg administered intramuscularly after 176 days; format: ADME, organism-based, Canis lupus familiaris; parameters: dose 5 mg/kg, route intramuscular, time 0 - last; conditions: plasma, im
[8] = Ratio of drug level in spleen to plasma in male Beagle dog at 400 mg/kg, sc after 1 month; format: ADME, organism-based, Canis lupus familiaris; parameters: dose 400 mg/kg, route subcutaneous
[9] = Ratio of drug level in thymus to plasma in male Beagle dog at 400 mg/kg, sc after 1 month; format: ADME, organism-based, Canis lupus familiaris; parameters: dose 400 mg/kg, route subcutaneous
[10] = test system: Plasma; test: (§1) Plasma concentration in Beagle dog at 5 mg/kg administered intramuscularly after 6 months; format: ADME, organism-based, Canis lupus familiaris; parameters: dose 5 mg/kg, route intramuscular; conditions: in vivo, im, 4383 h, BLD = below limit of detection
[11] = as §1; format: ADME, organism-based, Canis lupus familiaris; parameters: dose 5 mg/kg, route intramuscular; conditions: im
[12] = Drug level in male Beagle dog spleen at 400 mg/kg, sc after 3 months; format: ADME, organism-based, Canis lupus familiaris; parameters: dose 400 mg/kg, route subcutaneous; conditions: read-out: Drug uptake
[13] = Ratio of drug level in lymph node iliac to plasma in Beagle dog at 5 mg/kg, sc after 3 months; format: ADME, organism-based, Canis lupus familiaris; parameters: dose 5 mg/kg, route subcutaneous
[14] = Drug level in male Beagle dog thymus at 400 mg/kg, sc after 3 months; format: ADME, organism-based, Canis lupus familiaris; parameters: dose 400 mg/kg, route subcutaneous; conditions: read-out: Drug uptake
[15] = Drug level in Beagle dog lymph node popliteal at 5 mg/kg administered intramuscularly after 6 months; format: ADME, organism-based, Canis lupus familiaris; parameters: dose 5 mg/kg, route intramuscular; conditions: im, read-out: Drug uptake
[16] = AUC (0 to last) in female dog at 200 mg, sc after 29 days; conditions: plasma
[17] = Drug level in Beagle dog skin at injected site at 5 mg/kg administered intramuscularly after 6 months; format: ADME, organism-based, Canis lupus familiaris, Zone of skin; parameters: dose 5 mg/kg, route intramuscular; conditions: im, read-out: Drug uptake
[18] = Ratio of drug level in thymus to plasma in male Beagle dog at 200 mg/kg, sc after 3 months; format: ADME, organism-based, Canis lupus familiaris; parameters: dose 200 mg/kg, route subcutaneous
[19] = Ratio of drug level in spleen to plasma in male Beagle dog at 400 mg/kg, sc after 3 months; format: ADME, organism-based, Canis lupus familiaris; parameters: dose 400 mg/kg, route subcutaneous
[20] = Plasma concentration in Beagle dog at 5 mg/kg, sc after 1 month; format: ADME, organism-based, Canis lupus familiaris; parameters: dose 5 mg/kg, route subcutaneous
[21] = test system: Canis familiaris; test: Tmax in Beagle dog at 5 mg/kg, sc after 184 days; format: ADME, organism-based, Canis lupus familiaris; parameters: dose 5 mg/kg, route subcutaneous; conditions: in vivo, 4416 h
[22] = Ratio of drug level in thymus to plasma in female Beagle dog at 200 mg/kg administered intramuscularly after 1 month; format: ADME, organism-based, Canis lupus familiaris; parameters: dose 200 mg/kg, route intramuscular; conditions: im
[23] = Plasma concentration in female Beagle dog at 400 mg/kg, sc after 3 months; format: ADME, organism-based, Canis lupus familiaris; parameters: dose 400 mg/kg, route subcutaneous
[24] = Plasma concentration in male Beagle dog at 400 mg/kg administered intramuscularly after 3 months; format: ADME, organism-based, Canis lupus familiaris; parameters: dose 400 mg/kg, route intramuscular; conditions: im
[25] = Drug level in Beagle dog liver at 5 mg/kg, sc after 3 months; format: ADME, organism-based, Canis lupus familiaris; parameters: dose 5 mg/kg, route subcutaneous; conditions: read-out: Drug uptake
[26] = Ratio of drug level in thymus to plasma in female Beagle dog at 400 mg/kg, sc after 1 month; format: ADME, organism-based, Canis lupus familiaris; parameters: dose 400 mg/kg, route subcutaneous
[27] = Ratio of drug level in thymus to plasma in Beagle dog at 5 mg/kg, sc after 6 months; format: ADME, organism-based, Canis lupus familiaris; parameters: dose 5 mg/kg, route subcutaneous
[28] = Drug level in Beagle dog lymph node popliteal at 5 mg/kg, sc after 6 months; format: ADME, organism-based, Canis lupus familiaris; parameters: dose 5 mg/kg, route subcutaneous; conditions: read-out: Drug uptake
[29] = Cmax in Beagle dog at 5 mg/kg administered intramuscularly after 184 days; format: ADME, organism-based, Canis lupus familiaris; parameters: dose 5 mg/kg, route intramuscular; conditions: in vivo, im
[30] = Ratio of drug level in spleen to plasma in Beagle dog at 5 mg/kg, sc after 6 months; format: ADME, organism-based, Canis lupus familiaris; parameters: dose 5 mg/kg, route subcutaneous

- Kp at 2191.5 h [1]: 2.9
- concentration at 2191.5 h [2]: 22.1 ng/g
- Kp at 730.5 h [3]: 2
- Kp at 2191.5 h [4]: 1.9
- concentration at 2191.5 h [5]: 223000 ng/g
- Tmax [6]: 33 min
- AUC(0-t) at 4224 h [7]: 23.2 µg·h/mL
- Kp at 730.5 h [8]: 2.9
- Kp at 730.5 h [9]: 2.9
- Cp [10]: BLD
- concentration at 4383 h [11]: < 0.001 µg/mL
- concentration at 2191.5 h [12]: 11.3 ng/g
- Kp at 2191.5 h [13]: 5.2
- concentration at 2191.5 h [14]: 173 ng/g
- concentration at 4383 h [15]: 30.7 ng/g
- AUC(0-t) at 696 h [16]: 70.6 µg·h/mL
- concentration at 4383 h [17]: 9.5 ng/g
- Kp at 2191.5 h [18]: 5.9
- Kp at 2191.5 h [19]: 2.3
- concentration at 730.5 h [20]: 0.0168 µg/mL
- Tmax [21]: 144 h
- Kp at 730.5 h [22]: 5.7
- concentration at 2191.5 h [23]: 0.036 µg/mL
- concentration at 2191.5 h [24]: 0.0221 µg/mL
- concentration at 2191.5 h [25]: 45.6 ng/g
- Kp at 730.5 h [26]: 5
- Kp at 4383 h [27]: 16
- concentration at 4383 h [28]: 5.5 ng/g
- Cmax [29]: 0.173 µg/mL
- Kp at 4383 h [30]: 5.5
SMILES: Cc1cc(/C=C/C#N)cc(C)c1Nc1ccnc(Nc2ccc(C#N)cc2)n1 [RILPIVIRINE]
